These results are taken from DBAASP.

Test systems include Staphylococcus aureus; Escherichia coli; Trichosporon beigelii; Pseudomonas aeruginosa; Proteus vulgaris; Bacillus subtilis; Fusarium verticillioides; Saccharomyces cerevisiae; Botrytis cinerea; Salmonella typhimurium; Bacillus cereus AS1.1846.
Holding throughout (test): ≥ marks a high value that may be exact or a test limit, other limits are often not marked, values filed in µg/mL are converted to µM
The subject of assay [1] is Aspergillus flavus KCTC 9471.
The subject of assay [2] is Escherichia coli O157:H7 ATCC 43895.
In assay [3] the test system is Listeria monocytogenes KCTC 3710.
Assay [4] deals with Staphylococcus epidermidis.
Assay [5] relates to Candida albicans KCTC 7270.
The test system of assay [6] is Aspergillus fumigatus KCTC 6145.
Assay [7] deals with Escherichia coli ATCC 25922.
The test system of assay [8] is Staphylococcus aureus ATCC 25923.
Assay [9] relates to Candida albicans NCTC 3179.
Assay [10] relates to Escherichia coli ATCC 11775.
Assay [11] has as its system Escherichia coli ATCC 35218.
Assay [12] has as its system Salmonella enterica subsp. enterica serovar Typhimurium ATCC 14028.
The test system of assay [13] is Salmonella enterica subsp. enterica serovar Typhi Vi+.
In assay [14] the test system is Escherichia coli K-12 594.
Assay [15] concerns Staphylococcus aureus ATCC 6538P.
Assay [16] relates to Staphylococcus aureus SR1550.
Assay [17] deals with Listeria monocytogenes ATCC 19114.

In brackets after ≈: the same amount, converted by molar mass. Where only a bound is given, the exact number is not on record here.

For the compound `CC[C@H](C)[C@H](NC(=O)[C@H](CCCCN)NC(=O)[C@H](CO)NC(=O)[C@H](Cc1ccccc1)NC(=O)[C@H](CC(C)C)NC(=O)[C@H](CCCCN)NC(=O)[C@H](CCC(=O)O)NC(=O)[C@H](CC(C)C)NC(=O)[C@H](CCCN=C(N)N)NC(=O)[C@H](CCCCN)NC(=O)[C@H](Cc1ccccc1)NC(=O)[C@@H](NC(=O)[C@H](CCCCN)NC(=O)[C@H](CCCCN)NC(=O)[C@H](C)N)C(C)C)C(=O)N[C@@H](CCC(N)=O)C(=O)N[C@@H](CC(N)=O)C(=O)N[C@@H](Cc1c[nH]c2ccccc12)C(=O)N[C@@H](CCCCN)C(N)=O` [AKKVFKRLEKLFSKIQNWK], the minimum inhibitory concentration (MIC) (commonly the least concentration at which growth counts as inhibited) with Staphylococcus aureus is 3.13 µM (≈ 7.48 µg/mL); in assay [1], at least 50 µM; with Escherichia coli it was 0.78 µM (≈ 1.86 µg/mL); in assay [2] it was 6.25 µM (≈ 14.9 µg/mL); in assay [3], 0.78 µM (≈ 1.86 µg/mL); in assay [4] it was 3.13 µM (≈ 7.48 µg/mL). The MIC in the assay on Trichosporon beigelii was 1.56 µM (≈ 3.73 µg/mL); against Pseudomonas aeruginosa, 3.13 µM (≈ 7.48 µg/mL); in the assay with Proteus vulgaris, 3.13 µM (≈ 7.48 µg/mL); in assay [5] it was 25 µM (≈ 59.8 µg/mL); against Bacillus subtilis, 1.56 µM (≈ 3.73 µg/mL); in assay [6], at least 50 µM. In addition, the MIC in the assay on Fusarium verticillioides was determined as 12.5 µM (≈ 29.9 µg/mL); with Saccharomyces cerevisiae it was 25 µM (≈ 59.8 µg/mL); against Botrytis cinerea, 6.25 µM (≈ 14.9 µg/mL); in the assay with Salmonella typhimurium, 0.39 µM (≈ 0.932 µg/mL).

On to `CC[C@H](C)[C@H](NC(=O)[C@H](CCCCN)NC(=O)[C@@H](NC(=O)[C@@H](NC(=O)[C@H](CO)NC(=O)[C@H](CC(=O)O)NC(=O)[C@@H](NC(=O)[C@H](CC(N)=O)NC(=O)[C@@H](N)CC(=O)O)[C@@H](C)O)C(C)C)C(C)C)C(=O)N[C@@H](CCC(N)=O)C(=O)N[C@@H](CO)C(=O)N[C@@H](Cc1c[nH]c2ccccc12)C(=O)N[C@@H](Cc1ccccc1)C(=O)N[C@@H](CCCN=C(N)N)C(=O)N[C@@H](CCSC)C(=O)N[C@@H](C)C(=O)N[C@H](C(=O)N[C@@H](C)C(=O)N[C@@H](CCCN=C(N)N)C(=O)N[C@@H](CCCCN)C(=O)N[C@@H](CO)C(=O)N[C@@H](Cc1ccc(O)cc1)C(=O)N[C@@H](CC(C)C)C(=O)O)[C@@H](C)O` [DNTDSVVKIQSWFRMATARKSYL], for which the results for the MIC in [7], in [8] and in assay [9] were 1.25 µM (≈ 3.4 µg/mL), 26.5 µM (≈ 72 µg/mL) and 25.8 µM (≈ 70 µg/mL), respectively.

Consider `CC[C@H](C)[C@H](NC(=O)[C@@H]1CCCN1C(=O)[C@H](CCCN=C(N)N)NC(=O)[C@@H]1CCCN1C(=O)[C@H](Cc1cnc[nH]1)NC(=O)[C@@H]1CCCN1C(=O)[C@@H]1CCCN1C(=O)[C@@H]1CCCN1C(=O)[C@H](CCCN=C(N)N)NC(=O)[C@@H]1CCCN1C(=O)[C@@H]1CCCN1C(=O)[C@H](Cc1ccc(O)cc1)NC(=O)[C@@H]1CCCN1C(=O)[C@H](CCCN=C(N)N)NC(=O)[C@@H]1CCCN1C(=O)[C@H](CCCCN)NC(=O)CN)C(=O)N[C@@H](CCCN=C(N)N)C(=O)N[C@H](C(=O)O)C(C)C` [GKPRPYPPRPPPHPRPIRV], for which the MIC came out at 0.3 µM (≈ 0.664 µg/mL) in assay [10]; 0.2 µM (≈ 0.443 µg/mL) in assay [11]; 0.6 µM (≈ 1.33 µg/mL) in assay [12]; 0.3 µM (≈ 0.664 µg/mL) in assay [7]; 0.6 µM (≈ 1.33 µg/mL) in assay [13].

For the compound `CC(C)C[C@H](NC(=O)[C@H](CC(C)C)NC(=O)[C@H](CC(C)C)NC(=O)[C@H](CC(C)C)NC(=O)[C@H](CC(C)C)NC(=O)[C@@H](N)CCCCN)C(=O)N[C@@H](CCCCN)C(N)=O` [KLLLLLK], the figures for the MIC in assay [14], in assay [15] and in assay [16] were 29.8 µM (≈ 25 µg/mL), 19 µM (≈ 16 µg/mL) and at least 41.7 µM, respectively.

In the case of `CC(C)[C@H](N)C(=O)N[C@@H](CO)C(=O)NCC(=O)N1CCC[C@H]1C(=O)N[C@@H](C)C(=O)NCC(=O)N1CCC[C@H]1C(=O)N1CCC[C@H]1C(=O)NCC(=O)N[C@H](C(=O)N[C@@H](Cc1cnc[nH]1)C(=O)O)[C@@H](C)O` [VSGPAGPPGTH], the MIC (in [17]; with Bacillus cereus AS1.1846) was 16.4 µM (≈ 16 µg/mL) each time.
